{"source": "paper PMC7475180", "about": "“The Arabidopsis TRM61/TRM6 complex is a bona fide tRNA N^1-methyladenosine methyltransferase” (Journal of Experimental Botany, 2020)", "biological_target": "T1, AtTRM61/AtTRM6 complex (AtTRM61-His/AtTRM6-GST) (Arabidopsis thaliana, UniProt F4K6U9)", "T1 construct": "gene TRM61; CDSs of AtTRM61 (pET28a+, His tag) and AtTRM6 (pGEX-4T-2, GST tag) co-expressed in E. coli, Ni-NTA purified; tag removal not mentioned; heterodimeric complex; with tRNA (adenine(58)-N(1))-methyltransferase non-catalytic subunit TRM6", "T1 sequence (F4K6U9 1-318)": "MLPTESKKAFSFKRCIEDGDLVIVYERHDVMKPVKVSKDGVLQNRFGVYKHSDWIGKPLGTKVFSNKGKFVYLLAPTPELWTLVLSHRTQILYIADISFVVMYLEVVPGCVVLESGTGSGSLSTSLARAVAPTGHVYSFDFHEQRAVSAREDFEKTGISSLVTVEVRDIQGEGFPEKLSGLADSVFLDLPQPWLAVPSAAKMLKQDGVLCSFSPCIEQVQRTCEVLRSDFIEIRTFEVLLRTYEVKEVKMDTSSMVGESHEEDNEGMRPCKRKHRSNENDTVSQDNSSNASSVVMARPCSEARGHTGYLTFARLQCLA", "T1 sequence (O80846 1-446 partner)": "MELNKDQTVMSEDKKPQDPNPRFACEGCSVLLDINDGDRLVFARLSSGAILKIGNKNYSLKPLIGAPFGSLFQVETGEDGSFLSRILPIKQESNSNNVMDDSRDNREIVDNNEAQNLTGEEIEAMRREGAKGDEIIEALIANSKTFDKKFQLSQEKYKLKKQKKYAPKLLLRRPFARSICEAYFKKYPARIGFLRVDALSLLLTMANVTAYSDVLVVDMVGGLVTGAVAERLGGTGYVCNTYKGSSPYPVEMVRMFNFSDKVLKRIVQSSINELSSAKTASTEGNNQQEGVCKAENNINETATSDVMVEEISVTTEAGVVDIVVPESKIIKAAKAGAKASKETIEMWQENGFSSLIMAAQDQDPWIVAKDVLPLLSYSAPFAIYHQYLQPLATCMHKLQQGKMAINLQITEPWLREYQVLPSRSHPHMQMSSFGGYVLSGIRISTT", "assay": "m1A formation on tRNA, anti-m1A immuno-northern blot", "format": "biochemical", "conditions": "methyl donor, 30 mM AdoMet as printed; 150 nM RNA substrate (trm6-506 yeast tRNA or in vitro transcribed Arabidopsis tRNAiMet); 15 nM protein; 30 °C, 30 min", "data": [{"compound": "C[S+](CC[C@H](N)C(=O)O)C[C@H]1O[C@@H](n2cnc3c(N)ncnc32)[C@H](O)[C@@H]1O", "note": "(stereo partly drawn) [S-adenosyl-L-methionine]", "values": [{"measurement": "m1A formation on tRNA, anti-m1A immuno-northern blot", "result": "The purified complex was then incubated with a methyl donor (SAM)"}]}]}
